EP4574151A1, “INHIBITORS OF G12V-MUTATED RAS PROTEIN TO TREAT CANCER” (Personather Spolka Z Ograniczona Odpowiedzialnoscia, priority 2023, dated 2025)
“Also recorded” adds a separate entry of the source.

Tested on: SW480 cell line
Assay: Western Blot analysis of the RAS-controlled signal transduction pathway in a cancer cell line expressing KRASG12V
Format: cell-based
Conditions: SW480 cell line with RASG12V mutation; 1, 5 and 10 µM; 24 hours; serum-free
From the text: Analysis of the impact of the tested compound on the signal transduction pathway controlled by RAS family proteins in cancer cell lines expressing KRASG12V based on the Western Blot method.
The example illustrates the impact of the PER154A and PER160A molecules on the signal transduction pathway in the cancer cell line SW480.
• 1. SW480 cell line at 80-90% confluence was rinsed with PBS without Mg2+ and Ca2+ ions. Remove PBS. • 2. Cells were detached from the vessel using Trypsin-EDTA (0.05%, 1x) for 1-3 minutes at 37°C. • 3. Cells were transferred to a 15 ml tube, centrifuged (200xg, 4 min) and suspended in DMEM High Glucose (HG) medium with 10% bovine serum and antibiotics. • 4. Cells were counted. • 5. 5x10^5 cells were added to each well of a 6-well plate for adherent culture. • 6. The above medium was replenished and left for approximately 24 hours.
• 7. Cells were washed 2-3 times with buffered saline solution without Mg2+ and Ca2+ ions. PBS was carefully removed each time. • 8. 2 ml of DMEM HG medium with antibiotics and without serum was added, left for approximately 24 hours.
• 9. The cells were washed 2-3 times with buffered saline without Mg2+ and Ca2+ ions. PBS was carefully removed each time. • 10. […]

Row | Structure (SMILES) | impact on downstream signal transduction pathways in relation to RASG12V (AKT, ERK phosphorylation)
1 | O=C(Nc1ccc2c(c1)OCCO2)c1ccc2c(c1)C1C3CCC(C3)C1C(c1ccccc1)N2 (centres unmarked) [PER154A] | Significant impact; also recorded: blocks
2 | O=C(Nc1ccc(F)cc1)c1ccc2c(c1)C1C3CCC(C3)C1C(c1ccccc1)N2 (centres unmarked) [PER160A] | Significant impact; also recorded: blocks
